Reference: patent US20090137652A1, “METHODS FOR NEUROPROTECTION” (priority 2005, published 2009)
Counter-ions that a name gives are not always drawn.

Assays:
[1] = system: transient cerebral ischemia middle cerebral artery occlusion (MCAO) rat model; assay: Transient cerebral ischemia middle cerebral artery occlusion (MCAO) rat model, infarct volume; assay type: in vivo; details: MK 801 3 mg/kg i.p., N 12
Description: The enantiomer of Formula 7 (test compound) was investigated in the transient cerebral ischemia middle cerebral artery occlusion (MCAO) rat model (as described in Nagasawa H. and Kogure K., Stroke, 1989, 20, 1037; and, Zea Longa E., Weinstein P. R., Carlson S, and Cummins R., Stroke, 1989, 20, 84) using male Wistar rats at 10 and 100 mg/kg (i.v.). MK 801 (Dizocilpine maleate; CAS Registry number 77086-22-7, a commercially available neuroprotectant compound) was used as a positive control (3 mg/kg, i.p.).
Rats (n=12) were randomly allocated to one of four experimental groups and were anesthetized. Blood flow from the internal carotid artery, anterior cerebral artery and posterior cerebral artery into the middle cerebral artery was blocked by this procedure. One hour after blockage, animals were treated over a 1 hour period with vehicle (administered i.v. over the one hour period), control (administered as a single i.p. dose at the start of the one hour period) and two doses of the enantiomer of Formula 7 (administered i.v. over the one hour period). Two hours after blockage, reperfusion was performed.
The animals were sacrificed and […] coronal sections of each brain were prepared. One in every forty sections (i.e. every […]) from the front to the occipital cortex was used to quantify the extent of the cerebral lesion. Slides were prepared using sections stained (according to the Nissl procedure) with cresyl violet and were examined under a light microscope.
Regional ischemic surface areas in the coronal sections of individual rats were determined according to the presence of cells with morphological changes. The areas of neuronal injury or infarction were measured and then added. The cortex and striatum volume were calculated for each animal (total ischemic surface area×0.8 mm (thickness)).
The mean volumes (.+−.S.E.M.) for each animal randomly assigned to the four experimental groups were compared using one-way ANOVA (one way ANOVA is a statistical method which compares 3 or more unmatched groups) followed by Dunnett's t-test (both methods incorporated in Statview 512+software, BarinPower, Calabasas, Calif., USA).

PC12 cells = assay: PC12 cell serum withdrawal model, MTS cell survival assay; assay type: cell-based
Excerpt: Serum withdrawal is a cytotoxic environmental challenge that results in cell death in cultured cell lines as well as in primary cells of various tissue origins, including nerve cells. In particular, pheochromocytoma (PC) 12 cells have been widely employed as an in vitro neuronal cell model for a wide variety of neurodegenerative and cell death related disorders (Muriel, et al, Mitochondrial free calcium levels (Rhod-2 fluorescence) and ultrastructural alterations in neuronally differentiated PC12 cells during ceramide-dependent cell death, J. Comp. Neurol., 2000, 426(2), 297-315; Dermitzaki, et al, Opioids transiently prevent activation of apoptotic mechanisms following short periods of serum withdrawal, J. Neurochem., 2000, 74(3), 960-969; Carlile, et al, Reduced apoptosis after nerve growth factor and serum withdrawal: conversion of tetrameric glyceraldehyde-3-phosphate dehydrogenase to a dimer, Mol. Pharmacol., 2000, 57(1), 2-12). PC12 cells were cultured in sterile media (RPMI 1640) supplemented with 10% heat-inactivated horse serum and 5% fetal bovine serum (FBS). The culture medium also contained Penicillin-Streptomycin-Neomycin antibiotic (50 µg, 50 µg, 100 µg, respectively). Medium was exchanged every other day and the cells were passed in log phase near confluence.
The control cells were cultured in regular media without any treatment. An enantiomer of Formula 7 or Formula 8 (10 µM) was mixed well in the medium and then applied to the cells. For the 2 day assay, an enantiomer of Formula 7 or Formula 8 (10 µM) was only applied to the cells once at the time of serum withdrawal. For the 7 day assay, an enantiomer of Formula 7 or Formula 8 (10. mu.M) was applied to the cells at the time of serum withdrawal and every 48 hr thereafter when cells were changed with fresh new serum-free medium. In the serum withdrawal group, the cells were cultured in serum-free medium with no additional enantiomer of Formula 7 or Formula 8. Cell survival was determined by the 3-(4,5-dimethylthiazol-2-yl)-5-(3-[…])-2-(4-sulfophenyl)-2H-tetrazolium inner salt (MTS) assay at 2 or 7 days after serum withdrawal.
At the end of the experiment, cells were washed with fresh medium and incubated with MTS solution in a humidified 37° C. with 5% CO2 incubator for 1.5 hr. After the incubation period, the cells were immediately analyzed using a Softmax program (Molecular Devices). […] The assay is based on the cellular conversion of the tetrazolium salt, MTS, into a formazan that is soluble in tissue culture medium and measured directly at 490 nm in 96-well assay plates. The absorbance is directly proportional to the number of living cells in culture. The arbitrary absorbance reading in control cells is expressed as 100% survival rate.

| SMILES | Mean Infarct Volume ± S.E.M., Striatum ([1]; vehicle 79.4) | Mean Infarct Volume ± S.E.M., Cortex ([1]; vehicle 275.5) | Mean Infarct Volume ± S.E.M., Total Volume ([1]; vehicle 354.9) | 2 Day Survival Rate (PC12 cells; 10 µM applied once at serum withdrawal, MTS assay 2 days after serum withdrawal, control 100, serum-free 49.6) | 7 Day Survival Rate (PC12 cells; 10 µM at serum withdrawal and every 48 hr, MTS assay 7 days after serum withdrawal, control 100, serum-free 23.8) |
| --- | --- | --- | --- | --- | --- |
| C[C@]12N[C@H](Cc3ccccc31)c1ccccc12 [MK 801, Dizocilpine maleate, reference compound] | 56.1 ± 5.3^2 mm^3 | 95.8 ± 24.5^1 mm^3 | 151.9 ± 28.7^1 mm^3 |  |  |
| NC(=O)OC[C@H](OC(N)=O)c1ccccc1Cl [Formula 8] |  |  |  | 66.4 ± 5.4^1% | 85.2 ± 0.6^2% |
